The values below come from US11589603B2, “Powdered nutritional product containing branched-chain amino acids and a sugar alcohol” (Abbott Laboratories, priority 2015, dated 2023).

Series [1] in a line: Example 5: effect of inositol isomers on dissolution of L-leucine, LC/UV of filtrate. It is filed as physicochemical. The settings on record: for Leu dissolved at 30 seconds (g/16 oz.) / Leu dissolved at 60 seconds (% of total Leu) / Leu dissolved at 60 seconds (g/16 oz.): 3.50 g L-leucine with 0.1 g/16 oz. inositol isomer, water 21° C., 400 rpm; for enhancement of dissolution rate of L-leucine by inositol isomer: 0.1 g isomer, 3.50 g L-leucine. As to the method: The LC/UV system used to perform the tests comprised the following: 1) Column: YMC ODS-AQ, 4.6 x 250 mm, 5 μm, Waters […]; 2) Mobile Phase: Milli-Q Plus water; 3) Flow Rate: 0.4 mL/minute; 4) Temperature: 40° C.; 5) Detection: UV at 192 nm; 6) Injection: 2 μL of filtrate; and 7) Run Time: 20 minutes.

Series [2] in a line: Example 4: aqueous dissolution of branched-chain amino acids in a powdered nutritional product with varying myo-inositol, LC/UV of filtrate. It is filed as physicochemical. As to conditions: powdered nutritional product; particularly evident at 30 seconds across all concentrations. On the procedure: The LC/UV system used to perform the tests comprised the following: 1) Column: YMC ODS-AQ, 4.6 x 250 mm, 5 μm, Waters P/N AQ12S052546WT; 2) Mobile Phase: Milli-Q Plus water; 3) Flow Rate: 0.4 mL/minute; 4) Temperature: 40° C.; 5) Detection: UV at 192 nm; 6) Injection: 2 μL of filtrate; and 7) Run Time: 20 minutes.
Example 4 evaluates the effect that myo-inositol concentration has on the aqueous dissolution of branched-chain amino acids (valine, isoleucine, and leucine) in a powdered nutritional product. One serving (17.6 grams) of the powdered nutritional product contains 7.00 grams of a branched-chain amino acid blend comprising 50 wt. % leucine, 25 wt. % isoleucine, and 25 wt. % valine. A serving of the powdered nutritional product with a specified amount of myo-inositol was added to 16 fluid ounces of Milli-Q Plus water at 21° C. and stirred at 400 rpm. At each specified time point, an aliquot was obtained and filtered through a 0.45 μm PTFE membrane (Pall Life Sciences, Acrodisc CR 25, P/N 4501), and the filtrate was tested for valine, isoleucine, and leucine using the LC/UV method as described in Example 3.

“And” between values parts separate entries of the source, which are not always exact repeats. Equal values may be shown once.

For the compound `OC1C(O)C(O)C(O)C(O)C1O` [L-chiro-inositol], in series [1], the “Leu dissolved at 30 seconds (g/16 oz.)” value was 0.472 g/16 oz, the “Leu dissolved at 60 seconds (% of total Leu)” value is given as 24.2 % of total Leu and the “Leu dissolved at 60 seconds (g/16 oz.)” value was found to be 0.848 g/16 oz.

With `OC1C(O)C(O)C(O)C(O)C1O` (stereo not drawn) [epi-inositol], in series [1], the “enhancement of dissolution rate of L-leucine by inositol isomer” value is “most enhanced”, the “Leu dissolved at 30 seconds (g/16 oz.)” value turned out to be 0.626 ± 0.223 g/16 oz, the “Leu dissolved at 60 seconds (% of total Leu)” value is 33.2 ± 10.6 % of total Leu and the “Leu dissolved at 60 seconds (g/16 oz.)” value was 1.16 ± 0.37 g/16 oz.

As for `O[C@H]1[C@H](O)[C@@H](O)[C@H](O)[C@@H](O)[C@H]1O` [myo-inositol], the “effect of addition of myo-inositol on rate of dissolution of the branched-chain amino acids” value in series [2] is recorded as “enhanced the rate of dissolution”. Besides, in series [1], the “Leu dissolved at 30 seconds (g/16 oz.)” value was 0.465 g/16 oz. and 0.495 g/16 oz; the “Leu dissolved at 60 seconds (% of total Leu)” value was 23.9 % of total Leu and 22.3 % of total Leu; the “Leu dissolved at 60 seconds (g/16 oz.)” value is 0.838 g/16 oz. and 0.781 g/16 oz.

Consider `OC1C(O)C(O)C(O)C(O)C1O` (stereo not drawn) [allo-inositol], for which, in series [1], the “enhancement of dissolution rate of L-leucine by inositol isomer” value is reported as “most enhanced”, the “Leu dissolved at 30 seconds (g/16 oz.)” value came to 0.792 g/16 oz, the “Leu dissolved at 60 seconds (% of total Leu)” value is 40.4 % of total Leu and the “Leu dissolved at 60 seconds (g/16 oz.)” value is recorded as 1.41 g/16 oz.

On to `OC1C(O)C(O)C(O)C(O)C1O` (stereo not drawn) [muco-inositol], for which, in series [1], the “Leu dissolved at 30 seconds (g/16 oz.)” value is on record as 0.379 g/16 oz, the “Leu dissolved at 60 seconds (% of total Leu)” value was 21.5 % of total Leu and the “Leu dissolved at 60 seconds (g/16 oz.)” value was 0.751 g/16 oz.
